# Experimental data taken from PubChem BioAssay (NCI).
#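 1) Cells in 96-well plates. 2) Compound, 48 h, 5 concentrations. 3) Linear interpolation between surrounding doses. 4) Unreached endpoint = highest concentration. Abbreviation: GI50, concentration required for 50% inhibition of growth. The concentration for full growth arrest is given as TGI.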
# Experiments:
# Experiment in all cases: NCI tumour cell line growth inhibition, 48 h
# HCT-116 colon = test system: HCT-116 colon
# A549 NSCLC = test system: A549 NSCLC
# SNB-75 CNS = test system: SNB-75 CNS
# SR leukemia = test system: SR leukemia
# SF-268 CNS = test system: SF-268 CNS
# MALME-3M melanoma = test system: MALME-3M melanoma
# CAKI-1 renal = test system: CAKI-1 renal
# LOX IMVI melanoma = test system: LOX IMVI melanoma
# MDA-MB-231 breast = test system: MDA-MB-231 breast
# SK-MEL-2 melanoma = test system: SK-MEL-2 melanoma
# PC-3 prostate = test system: PC-3 prostate
# HCT-15 colon = test system: HCT-15 colon
# MCF7 breast = test system: MCF7 breast
# A498 renal = test system: A498 renal
# OVCAR-4 ovarian = test system: OVCAR-4 ovarian
# HOP-92 NSCLC = test system: HOP-92 NSCLC
# OVCAR-3 ovarian = test system: OVCAR-3 ovarian
# SF-539 CNS = test system: SF-539 CNS
# DU-145 prostate = test system: DU-145 prostate
# RPMI-8226 leukemia = test system: RPMI-8226 leukemia
# OVCAR-5 ovarian = test system: OVCAR-5 ovarian
# T-47D breast = test system: T-47D breast
# NCI-H226 lung = test system: NCI-H226 lung
# NCI-H460 lung = test system: NCI-H460 lung
# KM12 colon = test system: KM12 colon
# HOP-62 NSCLC = test system: HOP-62 NSCLC
# RXF 393 renal = test system: RXF 393 renal
# MDA-MB-435 = test system: MDA-MB-435
# EKVX NSCLC = test system: EKVX NSCLC
# SK-MEL-28 melanoma = test system: SK-MEL-28 melanoma
# NCI/ADR-RES ovarian = test system: NCI/ADR-RES ovarian
# U251 CNS = test system: U251 CNS
# UACC-257 melanoma = test system: UACC-257 melanoma
# IGROV1 ovarian = test system: IGROV1 ovarian
# 786-0 renal = test system: 786-0 renal
# HCC-2998 colon = test system: HCC-2998 colon
# TK-10 renal = test system: TK-10 renal
# SF-295 CNS = test system: SF-295 CNS
# M14 melanoma = test system: M14 melanoma
# HL-60(TB) leukemia = test system: HL-60(TB) leukemia
# SK-MEL-5 melanoma = test system: SK-MEL-5 melanoma
# BT-549 breast = test system: BT-549 breast
# HS 578T breast = test system: HS 578T breast
# MOLT-4 leukemia = test system: MOLT-4 leukemia
# OVCAR-8 ovarian = test system: OVCAR-8 ovarian
# NCI-H522 lung = test system: NCI-H522 lung
# HT29 colon = test system: HT29 colon
# SK-OV-3 ovarian = test system: SK-OV-3 ovarian
# SNB-19 CNS = test system: SNB-19 CNS
# COLO 205 colon = test system: COLO 205 colon
# UACC-62 melanoma = test system: UACC-62 melanoma
# ACHN renal = test system: ACHN renal
# K-562 leukemia = test system: K-562 leukemia
# UO-31 renal = test system: UO-31 renal
# SN12C renal = test system: SN12C renal
# SW-620 colon = test system: SW-620 colon
smiles,measurement,setting,value
Cc1nc(-c2cc3ccccc3oc2=O)ccc1C(=O)/C=C/c1ccccn1,GI50,HCT-116 colon,6.34 µM
same,TGI,HCT-116 colon,> 100 µM
same,GI50,A549 NSCLC,> 100 µM
same,TGI,A549 NSCLC,> 100 µM
same,GI50,SNB-75 CNS,> 100 µM
same,TGI,SNB-75 CNS,> 100 µM
same,GI50,SR leukemia,5.3 µM
same,TGI,SR leukemia,> 100 µM
same,GI50,SF-268 CNS,> 100 µM
same,TGI,SF-268 CNS,> 100 µM
same,GI50,MALME-3M melanoma,> 100 µM
same,TGI,MALME-3M melanoma,> 100 µM
same,GI50,CAKI-1 renal,> 100 µM
same,TGI,CAKI-1 renal,> 100 µM
same,GI50,LOX IMVI melanoma,3.2 µM
same,TGI,LOX IMVI melanoma,> 100 µM
same,GI50,MDA-MB-231 breast,> 100 µM
same,TGI,MDA-MB-231 breast,> 100 µM
same,GI50,SK-MEL-2 melanoma,> 100 µM
same,TGI,SK-MEL-2 melanoma,> 100 µM
same,GI50,PC-3 prostate,> 100 µM
same,TGI,PC-3 prostate,> 100 µM
same,GI50,HCT-15 colon,> 100 µM
same,TGI,HCT-15 colon,> 100 µM
same,GI50,MCF7 breast,3.72 µM
same,TGI,MCF7 breast,> 100 µM
same,GI50,A498 renal,> 100 µM
same,TGI,A498 renal,> 100 µM
same,GI50,OVCAR-4 ovarian,> 100 µM
same,TGI,OVCAR-4 ovarian,> 100 µM
same,GI50,HOP-92 NSCLC,7.25 µM
same,TGI,HOP-92 NSCLC,> 100 µM
same,GI50,OVCAR-3 ovarian,> 100 µM
same,TGI,OVCAR-3 ovarian,> 100 µM
same,GI50,SF-539 CNS,> 100 µM
same,TGI,SF-539 CNS,> 100 µM
same,GI50,DU-145 prostate,> 100 µM
same,TGI,DU-145 prostate,> 100 µM
same,GI50,RPMI-8226 leukemia,3.41 µM
same,TGI,RPMI-8226 leukemia,> 100 µM
same,GI50,OVCAR-5 ovarian,> 100 µM
same,TGI,OVCAR-5 ovarian,> 100 µM
same,GI50,T-47D breast,> 100 µM
same,TGI,T-47D breast,> 100 µM
same,GI50,NCI-H226 lung,> 100 µM
same,TGI,NCI-H226 lung,> 100 µM
same,GI50,NCI-H460 lung,> 100 µM
same,TGI,NCI-H460 lung,> 100 µM
same,GI50,KM12 colon,> 100 µM
same,TGI,KM12 colon,> 100 µM
same,GI50,HOP-62 NSCLC,> 100 µM
same,TGI,HOP-62 NSCLC,> 100 µM
same,GI50,RXF 393 renal,> 100 µM
same,TGI,RXF 393 renal,> 100 µM
same,GI50,MDA-MB-435,> 100 µM
same,TGI,MDA-MB-435,> 100 µM
same,GI50,EKVX NSCLC,> 100 µM
same,TGI,EKVX NSCLC,> 100 µM
same,GI50,SK-MEL-28 melanoma,> 100 µM
same,TGI,SK-MEL-28 melanoma,> 100 µM
same,GI50,NCI/ADR-RES ovarian,> 100 µM
same,TGI,NCI/ADR-RES ovarian,> 100 µM
same,GI50,U251 CNS,8.49 µM
same,TGI,U251 CNS,> 100 µM
same,GI50,UACC-257 melanoma,> 100 µM
same,TGI,UACC-257 melanoma,> 100 µM
same,GI50,IGROV1 ovarian,> 100 µM
same,TGI,IGROV1 ovarian,> 100 µM
same,GI50,786-0 renal,> 100 µM
same,TGI,786-0 renal,> 100 µM
same,GI50,HCC-2998 colon,> 100 µM
same,TGI,HCC-2998 colon,> 100 µM
same,GI50,TK-10 renal,> 100 µM
same,TGI,TK-10 renal,> 100 µM
same,GI50,SF-295 CNS,> 100 µM
same,TGI,SF-295 CNS,> 100 µM
same,GI50,M14 melanoma,> 100 µM
same,TGI,M14 melanoma,> 100 µM
same,GI50,HL-60(TB) leukemia,> 100 µM
same,TGI,HL-60(TB) leukemia,> 100 µM
same,GI50,SK-MEL-5 melanoma,> 100 µM
same,TGI,SK-MEL-5 melanoma,> 100 µM
same,GI50,BT-549 breast,> 100 µM
same,TGI,BT-549 breast,> 100 µM
same,GI50,HS 578T breast,> 100 µM
same,TGI,HS 578T breast,> 100 µM
same,GI50,MOLT-4 leukemia,> 100 µM
same,TGI,MOLT-4 leukemia,> 100 µM
same,GI50,OVCAR-8 ovarian,> 100 µM
same,TGI,OVCAR-8 ovarian,> 100 µM
same,GI50,NCI-H522 lung,> 100 µM
same,TGI,NCI-H522 lung,> 100 µM
same,GI50,HT29 colon,> 100 µM
same,TGI,HT29 colon,> 100 µM
same,GI50,SK-OV-3 ovarian,> 100 µM
same,TGI,SK-OV-3 ovarian,> 100 µM
same,GI50,SNB-19 CNS,> 100 µM
same,TGI,SNB-19 CNS,> 100 µM
same,GI50,COLO 205 colon,> 100 µM
same,TGI,COLO 205 colon,> 100 µM
same,GI50,UACC-62 melanoma,> 100 µM
same,TGI,UACC-62 melanoma,> 100 µM
same,GI50,ACHN renal,> 100 µM
same,TGI,ACHN renal,> 100 µM
same,GI50,K-562 leukemia,6.47 µM
same,TGI,K-562 leukemia,> 100 µM
same,GI50,UO-31 renal,> 100 µM
same,TGI,UO-31 renal,> 100 µM
same,GI50,SN12C renal,> 100 µM
same,TGI,SN12C renal,> 100 µM
same,GI50,SW-620 colon,6.77 µM
same,TGI,SW-620 colon,> 100 µM
